Here are results for 10 compounds from patent US20250011316A1, “PEROXIREDOXIN 3 INHIBITORS AND METHODS OF USE FOR TREATING CANCER” (Wake Forest University Health Sciences, priority 2022, published 2025).

Data set [1] concerns Enterococcus hirae (ATCC #10541). The data set is described as follows: Antimicrobial Activity Assay (MIC / growth inhibition). The data set is classed as cell-based. To be noted: ATCC10541; Enterococcus hirae; analogs tested at 20 μM final concentration. Here is the method: The overnight growth was then diluted into growth media to make a single solution of E. hirae with a final optical density at 600 nm=0.02 AU. A 20 mM stock solution of Thiostrepton in DMSO was made and used to make multiple dilutions of TS in DMSO. Each TS dilution (0.1 mL) was then added to a test tube containing 10 mL of the diluted E. hirae and grown at 37° C. overnight while shaking at 180 rpm. The next morning, each tube was visually inspected to determine if the cells grew. Final concentrations tested were 0.120, 0.090, 0.075, 0.060, 0.045, 0.030, and 0.015 μM TS. […] Three replicates were made on three separate days (n=9). […] For TS analogs, the dilute E. hirae was treated with 20 μM final concentration of each analog (three replicates each). […] DMSO was used as a positive control (complete cell growth) and 20 μM thiostrepton was used as a negative control.

The nature of a further data set: Solubility Assay (HPLC). Format: physicochemical. As to conditions: HEPES/NaCl buffer, aqueous with cosolvent or surfactant or cyclodextrin, kinetic from dmso stock; 20 mM HEPES, 100 mM NaCl, pH 7.5, 18-24 hours at ambient temperature; read-out: Solubility. The procedure:
A 20 mM stock solution was made for each compound in DMSO. To measure solubility, 0.03-0.05 mL of the stock was added to 0.27 mL 20 mM HEPES, 100 mM NaCl, pH 7.5. The solution was mixed and rotated 18-24 hours at ambient temperature. The next day, solutions were centrifuged for 10 min at 20,000×g at […] to remove insoluble, solid material. Next, 100 μL of the supernatant containing the soluble compound was added to 900 μL DMSO and High Performance Liquid Chromatography was performed as described in Table 1 and either HIPLC gradient 1 (Table 2) or HIPLC gradient 2 (Table 3). For each analog, a 200 μM standard and a 20 μM standard were prepared and run in parallel (standards were dissolved completely in […]). The amount ofLcompound in the experimental sample was calculated by comparing the area under the curve for compound peak to the area for the closest standard and correcting for dilution.

For data set [2], the system named is human SK—OV-3 ovarian cancer cells. The data set is described as follows: Cellular Activity Assay (cytotoxicity, crystal violet). Format: cell-based. To be noted: SK—OV-3 cells, treated for 48 hr, 0.1-100 μM, crystal violet absorbance at 540 nm. An excerpt:
(§1) To test the activity of compounds, two complimentary assays were used as described below. The Biochemical PRX3 Inhibition Assay tests the ability of each compound to crosslink PRX3 in a simple, in vitro system. In the Cellular Activity Assay, we are testing the ability of compounds to kill SK—OV-3 ovarian cancer cells.
The Cellular Activity Assay measures the EC50 of each compound in human SK—OV-3 ovarian cancer cells TS to be taken into the cell, transported to the mitochondria, and crosslink PRX3.
The cytotoxicity of compounds was measured as described in Nelson et al. (2021) Antioxidants (Basel) 10, 150; Cunniff et al. (2015) PloS one 10, e0127310; and Newick et al. (2012) PloS one 7, e39404. SK—OV-3 is an adherent, epithelial, adenocarcinoma cell line obtained from ATCC (ref #: HTB-77). SK—OV-3 cells are resistant to the commonly used chemotherapeutics, cis-platinum and doxorubicin. For this […], SK—OV-3 cells were plated in a 96-well plate. After 24 h recovery, the cells were treated for 48 hr with multiple concentrations of each compound ranging from 0.1-100 μM.
Cells were washed with PBS to remove dead cells and the remaining live cells were fixed with 3.0% formaldehyde and stained with 0.1% crystal violet. The amount of crystal violet was determined by reading the absorbance at 540 nm (crystal violet dye dissolved in 100% methanol) using a plate reader. The signal for crystal violet dye is proportional to the biomass of remaining live cells. GraphPad Prism9 software was used to calculate the effective inhibitory concentration (EC50) of test compounds. Results for each compound, are normalized to the amount of cells in control wells treated with the equivalent concentration of DMSO (negative control). TS or Compound 4 were included in each set of assays as a positive control.

The next data set deals with T1, purified human PRX3 (Homo sapiens, UniProt P30048).
T1 construct: made in house
T1 sequence (P30048 62-256): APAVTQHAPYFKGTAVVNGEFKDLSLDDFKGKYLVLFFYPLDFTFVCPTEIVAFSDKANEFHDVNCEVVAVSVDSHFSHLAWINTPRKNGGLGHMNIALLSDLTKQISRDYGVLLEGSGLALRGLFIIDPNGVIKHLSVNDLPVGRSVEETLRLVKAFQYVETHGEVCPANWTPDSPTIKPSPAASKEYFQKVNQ
The data set can be described thus: Biochemical PRX3 Inhibition Assay (non-reducible crosslink by SDS PAGE + single adduct by MALDI-TOF MS). As to conditions: 100 μM PRX3 with TRX2/thioredoxin reductase/NADPH system and hydrogen peroxide, 1-2 hr at 37° C.
Excerpt: The compounds described herein generally react with two essential cysteine residues in the mitochondrial peroxidase PRX3, leading to the formation of a non-reducible, covalent crosslink of two PRX3 monomers. This crosslink inactivates PRX3. Increased PRX3 crosslink is associated with mitochondrial stress, increased cell death in cell models of malignant mesothelioma and is associated with decreased tumor volume in a mouse model. Cunniff et al. (2015) PloS one 10, e0127310.
as §1
This assay tests the ability of each compound to form a covalent adduct with PRX3. The assay is performed as described in Nelson et al. (2021) Antioxidants (Basel) 10, 150; and Cunniff et al. (2015) PloS one 10, e0127310, and follows the appearance of non-reducible PRX3 crosslinks by SDS PAGE gel electrophoresis and follows the appearance of single PRX3 adducts by mass spectrometry. For this assay, purified human PRX3, hydrogen peroxide (the PRX3 substrate) and all the components required to enable PRX3 to catalytically cycle (thioredoxin-thioredoxin reductase-NAPDH system) are included (details below).
The biochemical PRX3 Inhibition assay contains 100 μM PRX3, 50 μM human TRX2, 0.5 μM mouse thioredoxin reductase, and a NADPH regenerating system composed of 3.2 mM glucose 6-phosphate, 3.2 U/ml glucose 6-phosphate dehydrogenase and 0.4 mM NADPH. Samples are incubated for 1-2 hr at 37° C. with either 0.2 mM TS (positive control), compounds or an equivalent volume of DMSO (negative control). During this incubation, hydrogen peroxide is added to induce turnover of PRX3. Reactions are stopped by the addition of a buffer containing 100 mM dithiothreitol (to break disulfide bonds) and SDS (detergent to denature proteins). NADPH, Glucose 6-Phosphate, and glucose 6-phosphate dehydrogenase were purchased from Sigma Aldrich. PRX3, thioredoxin, and thioredoxin reductase were all purified to >98% purity in the Lowther laboratory according to protocols referenced in Nelson et al. (2021) Antioxidants (Basel) 10, 150; and Cunniff et al. (2015) PloS one 10, e0127310.
To measure the amount of PRX3 crosslink, proteins in the reaction were separated by SDS-polyacrylamide gel electrophoresis and stained for total protein using GelCode Blue (Life Technologies). The amount of unmodified PRX3 and TS-PRX3 crosslink was measured by densiometric analysis of the signal for the PRX3 band running at the MW of a PRX3 crosslink (˜46 kDa) compared to the PRX3 signal at the MW of the un-modified PRX3 (−23 kD).
To measure covalent adduct formation on a single PRX3 monomer, each reaction was exchanged into a mass spectrometry compatible buffer containing 40 mM ammonium citrate, pH 8.3 made in HPLC water. Sample was mixed 1:1 with a matrix solution containing 30 mg/mL sinapinic acid in 70% (vol/vol) acetonitrile, 0.2% formic acid and spotted to onto the sample plate. PRX3 mass was measured by MALDI-TOF MS analysis on a Bruker Daltonics MALDI-TOF MS spectrometer. Spectra were analyzed in FLEXAnalysis Software. The intensity of the reduced PRX3 peak (SH) and intensity of the analog adduct peak was determined and corrected for background signal at the adduct peak in the DMSO control. The fraction of single analog adduct in the monomer peak was determined by dividing the intensity of the adduct peak by the summed intensity of the SH and adduct peaks.

Structures are written as SMILES. Converted amounts (≈) assume the structure as drawn.

Turning to `C=C(NC(=O)c1csc(-c2ccc(C(=O)NCCCCCCOS(C)(=O)=O)nc2)n1)C(=O)NC(=C)C(=O)OC` [Compound 6, Methyl 2-(2-(2-(6-((6-((methylsulfonyl)oxy)hexyl)carbamoyl)pyridine-3-yl)thiazole-4-carboxamido)acrylamido)acrylate], the minimum inhibitory concentration (MIC) in data set [1] is above 20 µM. For the same compound, in the data set “Solubility Assay (HPLC)”, the solubility was below 100 µM. In data set [2] (Homo sapiens), this compound gave an EC50 of 1 to 10 µM. Besides, the “PRX3 Inhibition (Crosslink + Mono-adduct)” value (“PRX3 Inhibition” for short) at purified human PRX3 was “+++ (>90%)”.
`C=C(NC(=O)c1csc(N2CCN(C(=O)OC(C)(C)C)CC2)n1)C(=O)NC(=C)C(=O)OC` [Compound 18, Tert-butyl 4-(4-((3-((3-methoxy-3-oxoprop-1-en-2-yl)amino)-3-oxoprop-1-en-2-yl)carbamoyl)thiazol-2-yl)piperazine-1-carboxylate] gave an MIC in data set [1] above 20 µM. Further, in “Solubility Assay (HPLC)”, the solubility was 100 to 1000 µM (≈ 46.6 to 466 µg/mL). Moreover, the concentration for a half-maximal effect (EC50) in data set [2] (Homo sapiens) lay in the range of 25 to 100 µM. For the same compound, the “PRX3 Inhibition” value at purified human PRX3 is given as “+ (5-50%)”.
Regarding `C=C(NC(=O)c1csc(-c2ccc(CNC(=O)OCCOC)cc2)n1)C(=O)NC(=C)C(=O)OC` [Compound 26, Methyl 2-(2-(2-(4-((((2-methoxyethoxy)carbonyl)amino)methyl)phenyl)thiazole-4-carboxamido)acrylamido)acrylate], in data set [1], the MIC is above 20 µM. In addition, the solubility in “Solubility Assay (HPLC)” fell in the range of 100 to 1000 µM (≈ 48.9 to 489 µg/mL). In data set [2] (Homo sapiens), this compound had an EC50 of 1 to 10 µM. On purified human PRX3, the “PRX3 Inhibition” value is on record as “++ (50-90%)”.
Take `C=C(NC(=O)c1csc(N2CC[C@@H](NC(=O)OCC)C2)n1)C(=O)NC(=C)C(=O)OC` [Compound 23, Methyl (R)-2-(2-(2-(3-((ethoxycarbonyl)amino)pyrrolidin-1-yl)thiazole-4-carboxamido)acrylamido)acrylate]: the MIC in data set [1] was above 20 µM. Also, in the data set “Solubility Assay (HPLC)”, the solubility is below 100 µM. The compound further showed a concentration giving a half-maximal response (EC50) in data set [2] (Homo sapiens) of 1 to 10 µM. For the same compound, on purified human PRX3, the “PRX3 Inhibition” value was “+++ (>90%)”.
On the same counts, the results for `C=C(NC(=O)c1csc(N2CCOCC2)n1)C(=O)NC(=C)C(=O)OC` [Compound 17, Methyl 2-(2-(2-morpholinothiazole-4-carboxamido)acrylamido)acrylate] are above 20 µM, 100 to 1000 µM (≈ 36.6 to 366 µg/mL), 10 to 25 µM and “+++ (>90%)”.
On to `C=C(NC(=O)c1csc(-c2ccc(CNC(=O)CCCCCNC(=O)OC(C)(C)C)cc2)n1)C(=O)NC(=C)C(=O)OC` [Compound 16, Methyl 2-(2-(2-(4-((6-((tert-butoxycarbonyl)amino)hexanamido)methyl)phenyl)thiazole-4-carboxamido)acrylamido)acrylate], for which the minimal inhibitory concentration (MIC) in data set [1] was above 20 µM. The solubility in “Solubility Assay (HPLC)” is below 100 µM. The compound further yielded an EC50 in data set [2] of 10 to 25 µM. For the same compound, the “PRX3 Inhibition” value on purified human PRX3 is reported as “+++ (>90%)”.
`C=C(NC(=O)c1csc(-c2cccc(COCCOC)c2)n1)C(=O)NC(=C)C(=O)OC` [Compound 27, Methyl 2-(2-(2-(3-((2-methoxyethoxy)methyl)phenyl)thiazole-4-carboxamido)acrylamido)acrylate] came in with an MIC in data set [1] above 20 µM. In addition, in “Solubility Assay (HPLC)”, the solubility was below 100 µM. The compound further came in with an EC50 in data set [2] (Homo sapiens) of 1 to 10 µM. For the same compound, the “PRX3 Inhibition” value on purified human PRX3 was “+++ (>90%)”.
In data set [1], `C=C(NC(=O)c1csc(N2CCC(C(=O)NCCCOC(C)C)CC2)n1)C(=O)NC(=C)C(=O)OC` [Compound 29, Methyl 2-(2-(2-(4-((3-isopropoxypropyl)carbamoyl)piperidin-1-yl)thiazole-4-carboxamido)acrylamido)acrylate] yielded an MIC above 20 µM. Also, in the data set “Solubility Assay (HPLC)”, the solubility was 100 to 1000 µM (≈ 50.8 to 508 µg/mL). Moreover, in data set [2] (Homo sapiens), the EC50 was 1 to 10 µM. In addition, at purified human PRX3, the “PRX3 Inhibition” value is recorded as “+++ (>90%)”.
Consider `C=C(NC(=O)c1csc(N2CCC(CNC(=O)COCCOC)CC2)n1)C(=O)NC(=C)C(=O)OC` [Compound 41, Methyl 2-(2-(2-(4-((2-(2-methoxyethoxy)acetamido)methyl)piperidin-1-yl)thiazole-4-carboxamido)acrylamido)acrylate], for which, in “Solubility Assay (HPLC)”, the solubility is above 1000 µM. The EC50 in data set [2] (Homo sapiens) was in the range of 10 to 25 µM. Further, at purified human PRX3, the “PRX3 Inhibition” value is recorded as “+++ (>90%)”.
`C=C(NC(=O)c1csc(N2CCC(CNC(=O)C3CCOCC3)CC2)n1)C(=O)NC(=C)C(=O)OC` [Compound 52, methyl 2-(2-(2-(4-((tetrahydro-2H-pyran-4-carboxamido)methyl)piperidin-1-yl)thiazole-4-carboxamido)acrylamido)acrylate]: the solubility in the data set “Solubility Assay (HPLC)” is below 100 µM. The compound also had an EC50 in data set [2] (Homo sapiens) of 10 to 25 µM. The “PRX3 Inhibition” value on purified human PRX3 is “+++ (>90%)”.
